In ChEMBL document CHEMBL3045142, “Several Antifeedants from Neem Oil,Azadirachta indicaA. Juss., againstReticulitermes speratusKolbe (Isoptera: Rhinotermitidae)” (1992):

Experiments:
Format in all cases: functional
Reticulitermes speratus [1] = test: Antifeedant activity against Reticulitermes speratus assessed as antifeedant consumption at 200 ug/disk after 30 days by no-choice bioassay
Reticulitermes speratus [2] = test: Antifeedant activity against Reticulitermes speratus assessed as antifeedant consumption at 75 ug/disk after 30 days by no-choice bioassay
Reticulitermes speratus [3] = test: Antifeedant activity against Reticulitermes speratus assessed as antifeedant consumption at 150 ug/disk after 30 days by no-choice bioassay
Reticulitermes speratus [4] = test: Antifeedant activity against Reticulitermes speratus assessed as antifeedant consumption at 50 ug/disk after 30 days by no-choice bioassay
Reticulitermes speratus [5] = test: Antifeedant activity against Reticulitermes speratus assessed per disk after 30 days by no-choice bioassay
Reticulitermes speratus [6] = test: Antifeedant activity against Reticulitermes speratus assessed as reduction in feeding at 100 to 200 ug/disk after 30 days by no-choice bioassay relative to vehicle-control; parameters: scale not given: the % may be the effect or the level left
Reticulitermes speratus [7] = test: Antifeedant activity against Reticulitermes speratus assessed as antifeedant consumption at 100 ug/disk after 30 days by no-choice bioassay
Reticulitermes speratus [8] = test: Antifeedant activity against Reticulitermes speratus assessed as survival at 100 ug/disk after 30 days by no-choice bioassay (reference value: 92.5%); conditions: 720 h
Reticulitermes speratus [9] = test: Antifeedant activity against Reticulitermes speratus assessed as survival at 200 ug/disk after 30 days by no-choice bioassay (reference value: 92.5%); conditions: 720 h
Reticulitermes speratus [10] = test: Antifeedant activity against Reticulitermes speratus assessed as survival at 50 ug/disk after 30 days by no-choice bioassay (reference value: 92.5%); conditions: 720 h
Reticulitermes speratus [11] = test: Antifeedant activity against Reticulitermes speratus assessed as survival at 400 ug/disk after 30 days by no-choice bioassay (reference value: 92.5%); conditions: 720 h
Reticulitermes speratus [12] = test: Antifeedant activity against Reticulitermes speratus assessed as survival at 300 ug/disk after 30 days by no-choice bioassay (reference value: 92.5%); conditions: 720 h
Reticulitermes speratus [13] = test: Antifeedant activity against Reticulitermes speratus assessed as antifeedant consumption at 300 ug/disk after 30 days by no-choice bioassay
Reticulitermes speratus [14] = test: Antifeedant activity against Reticulitermes speratus assessed as survival at 500 ug/disk after 30 days by no-choice bioassay (reference value: 92.5%); conditions: 720 h
Reticulitermes speratus [15] = test: Antifeedant activity against Reticulitermes speratus assessed as antifeedant consumption at 400 ug/disk after 30 days by no-choice bioassay
Reticulitermes speratus [16] = test: Antifeedant activity against Reticulitermes speratus assessed as antifeedant consumption at 500 ug/disk after 30 days by no-choice bioassay
Reticulitermes speratus [17] = test: Antifeedant activity against Reticulitermes speratus assessed as survival at 5 ug/disk after 30 days by no-choice bioassay (reference value: 92.5%); conditions: 720 h
Reticulitermes speratus [18] = test: Antifeedant activity against Reticulitermes speratus assessed as antifeedant consumption at 10 ug/disk after 30 days by no-choice bioassay
Reticulitermes speratus [19] = test: Antifeedant activity against Reticulitermes speratus assessed as survival at 25 ug/disk after 30 days by no-choice bioassay (reference value: 92.5%); conditions: 720 h
Reticulitermes speratus [20] = test: Antifeedant activity against Reticulitermes speratus assessed as survival at 7.5 ug/disk after 30 days by no-choice bioassay (reference value: 92.5%); conditions: 720 h
Reticulitermes speratus [21] = test: Antifeedant activity against Reticulitermes speratus assessed as reduction in feeding at 50 ug/disk after 30 days by no-choice bioassay relative to vehicle-control; parameters: scale not given: the % may be the effect or the level left
Reticulitermes speratus [22] = test: Antifeedant activity against Reticulitermes speratus assessed as antifeedant consumption at 25 ug/disk after 30 days by no-choice bioassay
Reticulitermes speratus [23] = test: Antifeedant activity against Reticulitermes speratus assessed as antifeedant consumption at 7.5 ug/disk after 30 days by no-choice bioassay
Reticulitermes speratus [24] = test: Antifeedant activity against Reticulitermes speratus assessed as antifeedant consumption at 5 ug/disk after 30 days by no-choice bioassay
Reticulitermes speratus [25] = test: Antifeedant activity against Reticulitermes speratus assessed as survival at 10 ug/disk after 30 days by no-choice bioassay (reference value: 92.5%); conditions: 720 h
Reticulitermes speratus [26] = test: Antifeedant activity against Reticulitermes speratus assessed as survival at 150 ug/disk after 30 days by no-choice bioassay (reference value: 92.5%); conditions: 720 h
Reticulitermes speratus [27] = test: Antifeedant activity against Reticulitermes speratus assessed as survival at 75 ug/disk after 30 days by no-choice bioassay (reference value: 92.5%); conditions: 720 h
Reticulitermes speratus [28] = test: Antifeedant activity against Reticulitermes speratus assessed as survival at 125 ug/disk after 30 days by no-choice bioassay (reference value: 92.5%); conditions: 720 h
Reticulitermes speratus [29] = test: Antifeedant activity against Reticulitermes speratus assessed as antifeedant consumption at 125 ug/disk after 30 days by no-choice bioassay

Compound: COC(=O)C[C@H]1[C@]2(C)C3=C(C)[C@H](c4ccoc4)C[C@@H]3O[C@@H]2[C@H](O)[C@@H]2[C@@]1(C)C(=O)C=C[C@@]2(C)O
- Activity (Reticulitermes speratus [1]): 6.4 µg
- Activity (Reticulitermes speratus [2]): 25.2 µg
- Activity (Reticulitermes speratus [3]): 10 µg
- Activity (Reticulitermes speratus [4]): 16.3 µg
- PC50 (Reticulitermes speratus [5]): 96 µg
- PC95 (Reticulitermes speratus [5]): 245.4 µg
- Activity (Reticulitermes speratus [6]): 80%
- Activity (Reticulitermes speratus [7]): 19.9 µg

Compound: CC(=O)O[C@@H]1C[C@H]2C(C)(C)C(=O)C=C[C@]2(C)[C@H]2CC[C@]3(C)C(=CC(=O)[C@@H]3c3ccoc3)[C@@]21C [17-EPIAZADIRADIONE]
- survival at 100 µg/disc (Reticulitermes speratus [8]): 85.5%
- survival at 200 µg/disc (Reticulitermes speratus [9]): 85.5%
- survival at 50 µg/disc (Reticulitermes speratus [10]): 87%
- survival at 400 µg/disc (Reticulitermes speratus [11]): 86.5%
- survival at 300 µg/disc (Reticulitermes speratus [12]): 86.5%

Compound: CC(=O)O[C@@H]1C[C@H]2C(C)(C)C(=O)C=C[C@]2(C)[C@H]2CC[C@]3(C)C(=CC(=O)[C@@]3(O)c3ccoc3)[C@@]21C [17-HYDROXYAZADIRADIONE]
- Activity (Reticulitermes speratus [1]): 9.4 µg
- survival at 100 µg/disc (Reticulitermes speratus [8]): 61%
- Activity (Reticulitermes speratus [13]): 8.6 µg
- survival at 200 µg/disc (Reticulitermes speratus [9]): 50%
- survival at 50 µg/disc (Reticulitermes speratus [10]): 73%
- Activity (Reticulitermes speratus [4]): 17.8 µg
- PC50 (Reticulitermes speratus [5]): 67.8 µg
- PC95 (Reticulitermes speratus [5]): 235.6 µg
- Activity (Reticulitermes speratus [6]): 80%
- Activity (Reticulitermes speratus [7]): 16.5 µg
- survival at 300 µg/disc (Reticulitermes speratus [12]): 33.5%

Compound: CC(=O)O[C@@H]1C[C@H]2C(C)(C)C(=O)C=C[C@]2(C)[C@H]2CC[C@]3(C)C(=CC(=O)[C@H]3c3ccoc3)[C@@]21C [AZADIRADIONE]
- Activity (Reticulitermes speratus [1]): 79.3 µg
- survival at 100 µg/disc (Reticulitermes speratus [8]): 73%
- Activity (Reticulitermes speratus [13]): 62.9 µg
- survival at 200 µg/disc (Reticulitermes speratus [9]): 65.5%
- survival at 500 µg/disc (Reticulitermes speratus [14]): 0.5%
- PC50 (Reticulitermes speratus [5]): 238.5 µg
- PC95 (Reticulitermes speratus [5]): 827.5 µg
- Activity (Reticulitermes speratus [15]): 49.5 µg
- Activity (Reticulitermes speratus [16]): 2 µg
- survival at 400 µg/disc (Reticulitermes speratus [11]): 24.5%
- Activity (Reticulitermes speratus [7]): 55.1 µg
- survival at 300 µg/disc (Reticulitermes speratus [12]): 39%

Compound: CC1(C)C(=O)C=C[C@]2(C)[C@H]3CC[C@@]4(C)[C@H](c5ccoc5)OC(=O)[C@H]5O[C@]54[C@]3(C)[C@H](O)C[C@@H]12 [DEACETYLGEDUNIN]
- survival at 5 µg/disc (Reticulitermes speratus [17]): 91.3%
- Activity (Reticulitermes speratus [18]): 3.2 µg
- survival at 100 µg/disc (Reticulitermes speratus [8]): 12%
- survival at 25 µg/disc (Reticulitermes speratus [19]): 45.3%
- survival at 7.5 µg/disc (Reticulitermes speratus [20]): 87.3%
- Activity (Reticulitermes speratus [21]): 80.38%
- survival at 50 µg/disc (Reticulitermes speratus [10]): 20%
- Activity (Reticulitermes speratus [4]): 4.7 µg
- PC50 (Reticulitermes speratus [5]): 22.5 µg
- PC95 (Reticulitermes speratus [5]): 113.7 µg
- Activity (Reticulitermes speratus [22]): 4.7 µg
- Activity (Reticulitermes speratus [23]): 3.1 µg
- Activity (Reticulitermes speratus [24]): 2.2 µg
- survival at 10 µg/disc (Reticulitermes speratus [25]): 73.3%
- Activity (Reticulitermes speratus [7]): 7.2 µg

Compound: COC(=O)C[C@H]1[C@]2(C)C3=C(C)[C@H](c4ccoc4)C[C@H]3O[C@@H]2[C@H](O)[C@@H]2[C@]1(C)C(=O)C=C[C@@]2(C)C(=O)OC [DEACETYLNIMBIN]
- survival at 100 µg/disc (Reticulitermes speratus [8]): 85%
- survival at 200 µg/disc (Reticulitermes speratus [9]): 78.5%
- survival at 50 µg/disc (Reticulitermes speratus [10]): 87.5%
- PC50 (Reticulitermes speratus [5]): 280.6 µg
- PC95 (Reticulitermes speratus [5]): 1581.2 µg
- survival at 300 µg/disc (Reticulitermes speratus [12]): 74%

Compound: C/C=C(\C)C(=O)O[C@H]1C[C@@H](O)[C@@]2(C)CO[C@H]3[C@H]4O[C@@H]5C[C@@H](c6ccoc6)C(C)=C5[C@@]4(C)[C@H](CC(=O)OC)[C@]1(C)[C@@H]32 [DESACETYL SALANNIN]
- survival at 100 µg/disc (Reticulitermes speratus [8]): 72%
- survival at 200 µg/disc (Reticulitermes speratus [9]): 58%
- PC50 (Reticulitermes speratus [5]): 55.2 µg
- PC95 (Reticulitermes speratus [5]): 1373.1 µg
- survival at 400 µg/disc (Reticulitermes speratus [11]): 44%
- survival at 300 µg/disc (Reticulitermes speratus [12]): 49%

Compound: CC(=O)O[C@@H]1C[C@H]2C(C)(C)C(=O)C=C[C@]2(C)[C@H]2CC[C@@]3(C)[C@H](c4ccoc4)C(=O)[C@H]4O[C@]43[C@@]21C [EPOXYAZADIRADIONE]
- survival at 100 µg/disc (Reticulitermes speratus [8]): 75.5%
- survival at 200 µg/disc (Reticulitermes speratus [9]): 77%
- survival at 400 µg/disc (Reticulitermes speratus [11]): 64%
- survival at 300 µg/disc (Reticulitermes speratus [12]): 76.5%

Compound: CC(=O)O[C@@H]1C[C@H]2C(C)(C)C(=O)C=C[C@]2(C)[C@H]2CC[C@@]3(C)[C@H](c4ccoc4)OC(=O)[C@H]4O[C@]43[C@@]21C [GEDUNIN]
- Activity (Reticulitermes speratus [2]): 10.5 µg
- Activity (Reticulitermes speratus [3]): 5 µg
- survival at 150 µg/disc (Reticulitermes speratus [26]): 13.3%
- survival at 100 µg/disc (Reticulitermes speratus [8]): 39.3%
- survival at 25 µg/disc (Reticulitermes speratus [19]): 82%
- survival at 75 µg/disc (Reticulitermes speratus [27]): 49.3%
- survival at 125 µg/disc (Reticulitermes speratus [28]): 23.3%
- survival at 50 µg/disc (Reticulitermes speratus [10]): 51.3%
- Activity (Reticulitermes speratus [4]): 9 µg
- PC50 (Reticulitermes speratus [5]): 49 µg
- PC95 (Reticulitermes speratus [5]): 218.4 µg
- Activity (Reticulitermes speratus [22]): 8.5 µg
- Activity (Reticulitermes speratus [6]): 80%
- Activity (Reticulitermes speratus [29]): 6.8 µg
- Activity (Reticulitermes speratus [7]): 11 µg

Compound: COC(=O)C[C@H]1[C@]2(C)C3=C(C)[C@H](c4ccoc4)C[C@H]3O[C@@H]2[C@H](OC(C)=O)[C@@H]2[C@]1(C)C(=O)C=C[C@@]2(C)C(=O)OC [NIMBIN]
- survival at 100 µg/disc (Reticulitermes speratus [8]): 84%
- survival at 200 µg/disc (Reticulitermes speratus [9]): 84.5%
- survival at 500 µg/disc (Reticulitermes speratus [14]): 80.5%
- survival at 400 µg/disc (Reticulitermes speratus [11]): 83%
- survival at 300 µg/disc (Reticulitermes speratus [12]): 83%

Compound: C/C=C(/C)C(=O)O[C@H]1C[C@@H](OC(C)=O)[C@@]2(C)CO[C@H]3[C@H]4O[C@@H]5C[C@@H](c6ccoc6)C(C)=C5[C@@]4(C)[C@H](CC(=O)OC)[C@]1(C)[C@@H]32 [SALANNIN]
- Activity (Reticulitermes speratus [2]): 0.8 µg
- Activity (Reticulitermes speratus [3]): 0.5 µg
- survival at 150 µg/disc (Reticulitermes speratus [26]): 30.7%
- survival at 100 µg/disc (Reticulitermes speratus [8]): 40%
- survival at 25 µg/disc (Reticulitermes speratus [19]): 90.7%
- survival at 75 µg/disc (Reticulitermes speratus [27]): 29.3%
- survival at 125 µg/disc (Reticulitermes speratus [28]): 17.3%
- survival at 50 µg/disc (Reticulitermes speratus [10]): 58.7%
- Activity (Reticulitermes speratus [4]): 1.8 µg
- PC50 (Reticulitermes speratus [5]): 19.5 µg
- PC95 (Reticulitermes speratus [5]): 203.3 µg
- Activity (Reticulitermes speratus [22]): 3.7 µg
- Activity (Reticulitermes speratus [6]): 80%
- Activity (Reticulitermes speratus [29]): 0.8 µg
- Activity (Reticulitermes speratus [7]): 1.4 µg
